Columns and labels:
[1] = target: T1, Metabotropic glutamate receptor 5 (Homo sapiens, UniProt P41594); assay: Radioligand Binding Assay at Cloned Human mGluR5 Receptor Subtype: Affinity at transmembrane glutamate metabotropic cloned human mGluR5 receptor was evaluated according to the methods of Anderson (Anderson et al., J Pharmacol. Exp. Ther., (2002), Vol. 303(3), pp. 1044-51), with some modifications. Human cloned mGluR5 was obtained by re-suspending CHO T-REx h-mGluR5 cells (50 μg/well) in 20 mM HEPES, 2 mM MgCl2, 2 mM CaCl2, pH 7.4, that then were incubated in a final volume of 1 ml for 60 min at 25° C. with 4 nM [3H]MPEP in the absence or presence of competing drugs. Non-specific binding was determined in the presence of 10 μM MPEP. The incubation was stopped by addition of cold Tris buffer pH 7.4 and rapid filtration through 0.2% polyethyleneimine pretreated Filtermat 1204-401 (Perkin Elmer) filters. The filters were then washed with cold buffer and the radioactivity retained on the filters was counted by liquid scintillation spectrometry (Betaplate 1204 BS-Wallac).
T1 sequence (P41594 whole entry): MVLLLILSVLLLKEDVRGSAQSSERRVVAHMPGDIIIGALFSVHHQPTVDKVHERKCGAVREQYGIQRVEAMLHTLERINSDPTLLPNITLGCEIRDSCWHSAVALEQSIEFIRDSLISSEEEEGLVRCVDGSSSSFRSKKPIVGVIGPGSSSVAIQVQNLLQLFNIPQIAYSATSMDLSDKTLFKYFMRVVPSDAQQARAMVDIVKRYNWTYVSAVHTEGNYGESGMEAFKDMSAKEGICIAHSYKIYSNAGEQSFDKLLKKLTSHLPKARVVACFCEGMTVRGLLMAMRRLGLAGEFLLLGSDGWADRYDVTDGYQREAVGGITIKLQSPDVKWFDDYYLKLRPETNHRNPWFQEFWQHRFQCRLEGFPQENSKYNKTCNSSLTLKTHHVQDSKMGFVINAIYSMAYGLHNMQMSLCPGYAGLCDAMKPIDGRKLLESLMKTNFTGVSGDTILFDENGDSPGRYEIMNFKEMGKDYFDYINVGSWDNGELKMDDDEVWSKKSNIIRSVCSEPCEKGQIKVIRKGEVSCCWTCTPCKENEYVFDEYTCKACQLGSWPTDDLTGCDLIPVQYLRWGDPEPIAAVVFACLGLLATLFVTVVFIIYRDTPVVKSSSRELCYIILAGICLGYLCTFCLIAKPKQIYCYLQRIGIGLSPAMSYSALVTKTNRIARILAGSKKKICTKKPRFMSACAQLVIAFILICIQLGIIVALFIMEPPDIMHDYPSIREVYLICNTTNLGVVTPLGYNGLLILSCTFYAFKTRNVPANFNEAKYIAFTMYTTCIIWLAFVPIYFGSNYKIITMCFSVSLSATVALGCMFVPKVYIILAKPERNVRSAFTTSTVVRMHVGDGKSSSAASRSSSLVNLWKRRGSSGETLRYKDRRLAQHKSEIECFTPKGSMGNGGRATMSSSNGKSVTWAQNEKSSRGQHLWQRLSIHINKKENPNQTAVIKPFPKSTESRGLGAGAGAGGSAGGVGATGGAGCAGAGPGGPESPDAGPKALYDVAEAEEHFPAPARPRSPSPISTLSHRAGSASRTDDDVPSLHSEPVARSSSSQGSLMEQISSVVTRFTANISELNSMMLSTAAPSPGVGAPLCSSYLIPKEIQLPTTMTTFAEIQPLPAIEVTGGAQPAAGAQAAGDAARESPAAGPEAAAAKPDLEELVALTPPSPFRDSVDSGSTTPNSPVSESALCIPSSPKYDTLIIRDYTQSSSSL

[2] = target: T1, Metabotropic glutamate receptor 5; assay: Fold Shift of Agonist Curve Determination: The PAM potency was evaluated by performing an agonist concentration response curve in the presence of the compounds. The compounds at fixed concentration (0.01 or 0.1 or 1 μM) were applied 10 minutes before the incubation of the agonist (quisqualate or glutamate) dose-response curve. The fold shift was determined as ratio of EC50 agonist curves in presence and in absence of test compound.

Ki [1] [nM]	EC50 [2] [nM]	Structure (SMILES)
26.9		Cc1cccc(C#CC=C2CC(C)(C)NC(C)(C)C2)n1
2.24	51.7	COc1cc(OC)nc(C(=O)N2CC/C(=C\C#Cc3cccc(Cl)c3)C(C)(C)C2)n1

From ChEMBL document CHEMBL5729315, “Heterocyclylmethylidene derivatives and their use as modulators of mGluR5 receptors” (2022)
